In patent US20090312238A1, “Protection Against Oxidative Damage in Cells” (Florida Atlantic University, priority 2006, published 2009):

Columns and labels:
[1] = biological target: T1, eMsrA (Escherichia coli, UniProt P0A744); assay: Colorimetric assay for Msr activity based on the reduction of DABS-met(o); assay type: biochemical, E. coli; settings: for nmoles DABS-met: eMsrA 1.6 μg
T1 construct: made in house; host or cells: E. coli
Experimental: (§1) The reaction mixture (200 μl) to measure Msr activity contained 100 mM Tris-Cl pH 7.4, 100 nmoles of the indicated DABS-met(o) epimer (see Materials), either 15 mM DTT or the Trx regenerating system (Trx, 10 μg, Trx reductase, 2.4 μg, NADPH, 500 μM) and Msr enzyme as indicated. When the liver fractions (Zn-MT, T or T(o)) were tested, DTT was omitted and the Trx reducing system and 5 mM EDTA were added as indicated. Incubations were for 60 minutes at 37° C. unless noted otherwise. […] The quantitation of DABS-met formed employed a slight modification of an extraction procedure previously described by Etienne et al (Etienne, F., Resnick, L., Sagher, D., Brot, N. & Weissbach, H. (2003) Biochem Biophys Res Commun 312, 1005-1010) for the reduction of sulindac to sulindac sulfide by MsrA. The reactions were stopped by the addition of 200 μl of 1 M sodium acetate pH 6.0, followed by the addition of 100 μL of acetonitrile and 1 ml of benzene. After thorough shaking and centrifugation, the optical density of the benzene layer was read at 436 nm. […] Unless indicated otherwise, the results are presented as nmoles DABS-met formed in 60 minutes.

[2] = biological target: T2, eMsrB (Escherichia coli, UniProt P0A746); assay: as above; assay type: biochemical, E. coli
T2 construct: made in house; host or cells: E. coli
Experimental: as §1

[3] = biological target: T3, bMsrA (Bos taurus, UniProt P54149); assay: as above; assay type: biochemical, bovine
T3 construct: made in house; host or cells: E. coli
T3 sequence (P54149 21-233): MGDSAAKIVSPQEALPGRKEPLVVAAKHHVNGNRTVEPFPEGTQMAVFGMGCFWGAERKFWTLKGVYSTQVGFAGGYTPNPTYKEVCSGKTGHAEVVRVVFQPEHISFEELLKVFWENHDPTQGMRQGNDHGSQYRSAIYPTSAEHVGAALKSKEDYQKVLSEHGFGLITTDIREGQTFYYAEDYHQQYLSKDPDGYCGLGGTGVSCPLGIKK
Experimental: as §1

[4] = biological target: T4, hMsrB2 (Homo sapiens, UniProt Q9Y3D2); assay: as above; assay type: biochemical; settings: for nmoles DABS-met: hMsrB2 2.7 μg
T4 construct: made in house; host or cells: E. coli
T4 sequence (Q9Y3D2 21-182): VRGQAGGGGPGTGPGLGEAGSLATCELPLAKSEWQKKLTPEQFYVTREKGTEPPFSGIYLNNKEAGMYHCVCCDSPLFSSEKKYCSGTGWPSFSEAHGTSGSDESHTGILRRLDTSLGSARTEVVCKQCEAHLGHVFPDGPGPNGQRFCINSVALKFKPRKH
Experimental: as §1

[5] = biological target: T5, hMsrB3 (Homo sapiens, UniProt Q8IXL7); assay: as above; assay type: biochemical; settings: for activity of chelating agent in place of EDTA with Zn-MT: EGTA 5 or 20 mM, deferoxamine 5 mM, zincon 500 μM
T5 construct: made in house; host or cells: BL21 E. coli
T5 sequence (Q8IXL7 33-192): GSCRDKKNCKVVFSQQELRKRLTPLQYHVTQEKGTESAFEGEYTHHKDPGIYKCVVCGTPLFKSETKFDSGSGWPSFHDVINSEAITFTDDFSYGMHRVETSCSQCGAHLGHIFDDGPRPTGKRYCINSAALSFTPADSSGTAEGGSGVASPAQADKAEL
Experimental: as §1

[6] = biological target: T6, eMsrB (Escherichia coli, UniProt P0A746); assay: as above; assay type: biochemical, E. coli; remark: listed apart in the source
T6 construct: made in house; host or cells: E. coli
T6 sequence (P0A746 whole entry, looked up): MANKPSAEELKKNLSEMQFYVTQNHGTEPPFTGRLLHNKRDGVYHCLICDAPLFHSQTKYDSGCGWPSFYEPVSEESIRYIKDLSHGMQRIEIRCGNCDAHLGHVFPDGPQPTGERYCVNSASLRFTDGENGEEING
Experimental: as §1

[7] = biological target: T7, T(o) (Bos taurus, UniProt P68301); assay: Reduction of T(o) by Trx, oxidation of NADPH followed at 340 nm; assay type: biochemical, bovine; settings: FIG. 4; 100 μM NADPH, 26 μg Trx, 6 μg TrxB, 28 μg partially-oxidized T
T7 construct: Fresh bovine liver was homogenized in 3 volumes of 50 mM Tris, pH 7.4; from tissue; host or cells: bovine liver
T7 sequence (P68301 whole entry): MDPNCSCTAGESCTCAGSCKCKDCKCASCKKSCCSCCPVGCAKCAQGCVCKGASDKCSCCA
Experimental: To study the reduction of T(o) by Trx, the reaction mixtures contained, in a total volume of 1 ml, 100 μM NADPH, 26 μg Trx, 6 μg TrxB and 28 μg of partially-oxidized T (see above). The oxidation of NADPH was followed at 340 nm at room temperature.

[8] = tested on: Zn-MT; settings: appearance of free SH groups
Experimental: Briefly, purified Zn-MT was dialyzed against 10 mM HCl (pH 2.0) containing 150 mM NaCl for 12 hours at 4° C. The protein after dialysis is reduced, metal-free T and appears stable when left at pH 2.0. To study the activity of T in the Msr system, T was neutralized and added to the reaction mixtures immediately before the incubations were initiated. To oxidize T, 0.75 volumes of 50 mM Tris base were added to the T sample to bring the pH to 8.5. Under these conditions, approximately 50% of the sulfhydryls will become oxidized after 4 hours at room temperature or 2 hours at 37° C. With longer incubations, the T(o) started to precipitate.

[9] = tested on: Msr enzymes; assay: Msr activity assay, statements on the Msr enzymes as a group; assay type: biochemical; settings: no Trx system or T
Experimental: as §1

[10] = biological target: T8, MsrA (Rattus norvegicus, UniProt Q923M1); assay: MsrA activity in cardiomyocytes, reduction of sulindac to sulindac sulfide; assay type: cell-based; settings: for amount of product (sulindac sulfide): primary neonatal rat cardiomyocytes, 400 μM sulindac
T8 construct: endogenous in cells; host or cells: primary neonatal rat cardiomyocytes
T8 sequence (Q923M1 21-233): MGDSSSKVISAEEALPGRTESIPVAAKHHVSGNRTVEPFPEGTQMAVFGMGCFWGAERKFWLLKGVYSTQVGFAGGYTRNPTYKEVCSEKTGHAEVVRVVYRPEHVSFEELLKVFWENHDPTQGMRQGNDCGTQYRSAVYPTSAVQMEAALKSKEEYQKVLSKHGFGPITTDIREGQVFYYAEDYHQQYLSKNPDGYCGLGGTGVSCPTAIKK
Experimental: FIG. 10 is a graph showing selenocystamine (SeCm) can enhance MsrA activity in cardiomyocytes. Cardiomyocytes were incubated with 400 μM sulindac and indicated concentration of selenocystamine. Briefly, primary neonatal rat cardiomyocytes (approximately 10^6 cells per treatment) were incubated with sulindac and two different concentrations of selenocystamine. Sulindac is a substrate for MsrA, and the amount of the reduced product, sulindac sulfide, indicates the amount of MsrA activity. The amount of product is 2.7, 3.7 and 5.6 picomoles for 0, 5 μM and 50 μM selenocystamine, respectively. This amounts to a 37% and 107% stimulation.

[11] = Table 1, DABS-met-S-(o), 15 mM DTT or Trx regenerating system, 60 minutes at 37° C.
[12] = Table 2, 20 nmoles Zn-MT with 5 mM EDTA, or 15 mM DTT
[13] = Table 1, eMsrB 2.7 μg, DABS-met-R-(o), 15 mM DTT or Trx regenerating system, 60 minutes at 37° C.
[14] = Table 1, bMsrA 2 μg, DABS-met-S-(o), 15 mM DTT or Trx regenerating system, 60 minutes at 37° C.
[15] = Table 1, DABS-met-R-(o), 15 mM DTT or Trx regenerating system, 60 minutes at 37° C.
[16] = Table 1, hMsrB3 2.3 μg, DABS-met-R-(o), 15 mM DTT or Trx regenerating system, 60 minutes at 37° C.
[17] = mammalian Trx and mammalian Trx reductase

T1 sequence (P0A744 whole entry): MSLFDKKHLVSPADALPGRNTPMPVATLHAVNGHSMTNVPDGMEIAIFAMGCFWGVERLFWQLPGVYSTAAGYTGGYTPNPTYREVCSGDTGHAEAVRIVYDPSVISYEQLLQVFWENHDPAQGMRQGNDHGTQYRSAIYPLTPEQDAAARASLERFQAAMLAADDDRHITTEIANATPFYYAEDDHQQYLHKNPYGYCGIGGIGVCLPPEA

O[C@@H](CS)[C@@H](O)CS [DTT, reference compound]
nmoles DABS-met [1, 11]: 46.2 nmol | nmoles DABS-met [1, 12]: 45.7 nmol | nmoles DABS-met [2, 13]: 11.1 nmol | nmoles DABS-met ([2]; Table 2, eMsrB 5.4 μg, 20 nmoles Zn-MT with 5 mM EDTA, or 15 mM DTT): 27.8 nmol | nmoles DABS-met [3, 14]: 30.0 nmol | nmoles DABS-met ([3]; Table 2, bMsrA 2.0 μg, 20 nmoles Zn-MT with 5 mM EDTA, or 15 mM DTT): 38.9 nmol | nmoles DABS-met [4, 15]: 31.3 nmol | nmoles DABS-met [4, 12]: 27.1 nmol | nmoles DABS-met [5, 16]: 53.8 nmol | nmoles DABS-met ([5]; Table 2, hMsrB3 2.3 μg, 20 nmoles Zn-MT with 5 mM EDTA, or 15 mM DTT): 53.7 nmol | nmoles DABS-met formed ([5]; experiment of Table 3, hMsrB3 2.3 μg, 15 mM DTT): 52.7 nmol

O=C(O)CN(CCOCCOCCN(CC(=O)O)CC(=O)O)CC(=O)O [EGTA]
activity of chelating agent in place of EDTA with Zn-MT [5]: inactive

Trx: thioredoxin overexpressed and purified from E. coli; used as Trx regenerating system with Trx reductase and NADPH
Ratio Trx/DTT ([1]; Table 1, eMsrA): 1.0 | nmoles DABS-met [1, 11]: 46.8 nmol | Ratio Trx/DTT ([6]; Table 1, eMsrB): 5.4 | nmoles DABS-met [6, 13]: 60.3 nmol | Ratio Trx/DTT ([3]; Table 1, bMsrA): 0.53 | nmoles DABS-met [3, 14]: 15.8 nmol | Ratio Trx/DTT ([4]; Table 1, hMsrB2): 0.03 | nmoles DABS-met [4, 15]: 0.8 nmol | activity with Trx relative to the activity seen with DTT ([4]; hMsrB2): less than 10% | Ratio Trx/DTT ([5]; Table 1, hMsrB3): 0.03 | nmoles DABS-met [5, 16]: 1.7 nmol | nmoles DABS-met ([5]; Table 3 line 2, hMsrB3 2.3 μg, no T(o), Trx + NADPH + Trx reductase): 2.4 nmol | activity with Trx relative to the activity seen with DTT ([5]; hMsrB3): less than 10% | oxidation of NADPH [7]: dependent on Trx, Trx reductase and T(o)

O=C(O)CN(CCN(CC(=O)O)CC(=O)O)CC(=O)O [EDTA, ethylenediaminetetraacetic acid]
effect of EDTA by itself on hMsrB3 activity ([5]; EDTA alone): no significant effect | levels of EDTA giving optimal activity ([5]; heated liver S-100 as reducing source): above 2.5 mM | time for removal of zinc from Zn-MT [8]: less than 10 minutes | zinc removed from Zn-MT [8]: > 90%

CC(=O)N(O)CCCCCNC(=O)CCC(=O)N(O)CCCCCNC(=O)CCC(=O)N(O)CCCCCN [deferoxamine]
activity of chelating agent in place of EDTA with Zn-MT [5]: inactive

c1cnc2c(c1)ccc1cccnc12 [1,10-phenanthroline]
activity relative to EDTA, chelating agent in place of EDTA with Zn-MT ([5]; 5 mM): about 40%

O=C(O)c1ccccc1NN=C(N=Nc1cc(S(=O)(=O)O)ccc1O)c1ccccc1 [zincon]
activity of chelating agent in place of EDTA with Zn-MT [5]: inactive

NCC[Se][Se]CCN [SeC, selenocystamine]
stimulation by SeC above the Trx system alone ([1]; E. coli enzymes): less than a twofold stimulation | stimulation by SeC ([1]; complete Trx system, eMsrA): 10-20% | stimulation by SeC above the Trx system alone ([2]; E. coli enzymes): less than a twofold stimulation | stimulation by SeC ([2]; complete Trx system, eMsrB): 10-20% | increase of activity in the presence of SeC ([3]; complete Trx system, bMsrA): more than 3 fold | final concentration of SeC at maximal stimulation ([5]; FIG. 7, NADPH and Trx reductase or T as primary reducing agent): 50 µM | activity of SeC by itself [9]: no activity | stimulation of MsrA activity ([10]; 5 μM selenocystamine versus 0): 37% | stimulation of MsrA activity ([10]; 50 μM selenocystamine versus 0): 107% | amount of product (sulindac sulfide) ([10]; 5 μM selenocystamine): 3.7 picomoles | amount of product (sulindac sulfide) ([10]; 50 μM selenocystamine): 5.6 picomoles

B1: mammalian Trx: reduced mammalian Trx with mammalian Trx reductase; human Trx from Sigma, rat Trx reductase (TR3) (protein, UniProt P10599 2-105, looked up)
Thioredoxin: VKQIESKTAFQEALDAAGDKLVVVDFSATWCGPCKMIKPFFHSLSEKYSNVIFLEVDVDDCQDVASECEVKCMPTFQFFKKGQKVGEFSGANKEKLEATINELV
modifications: with rat Trx reductase
use of Trx from either source [1, 17]: efficiently used | use of Trx from either source [6, 17]: efficiently used | activity with reduced mammalian Trx [5, 17]: very poor activity
